Laboratory results from US5059588A, “Methods and compositions for healing bone using Gly His Lys: Copper” (ProCyte Corporation, Incorporated, priority 1989, dated 1991).
Several values for one entry are separate records, joined by “and”; a condition that tells them apart may be missing. Equal entries are not always repeated.

What was measured:
[1] = system: drill holes in bone (femur) of male rats; experiment: Healing of drill-hole defects in the femur of rats; format: in vivo, rat; conditions: for bone healing activity: general statement
Procedure: In one representative study, male rats weighing approximately 350-400 grams received drill holes in bone which were then treated with pharmaceutical preparations containing GHL-Cu.
More specifically, on the day of surgery (Day 0), animals were sedated with pentobarbital (I.P., 35 mg/kg). The hair was clipped from the left rear upper limb, and the area was prepped in a sterile fashion. Using a #15 blade, a 2 cm incision was made on the lateral surface of the upper limb following the approximate location of the femur, extending from just below the crest of the ilium. The tensor fasciae latae muscle was exposed and incised parallel to the muscle filers (1 cm incision). Careful retraction of the muscle provided exposure of the vastus lateralis muscle overlying the femur. The approach to the femur was completed upon incision and retraction of this muscle. This provided exposure of 1 cm of the lateral and ventral surfaces of bone. Using a periosteal elevator, the surface of the femur was cleaned of periosteum. At this point, very little bleeding had been encountered. Using a Dremel drill fitted with a 1 mm diameter cutting burr, a hole was drilled in the femur to a depth of approximately 0.75 mm. Little bleeding was evident except in the rare case of marrow penetration. The area was irrigated and hemostasis achieved. At this point, a pharmaceutical preparation of the compositions of the present invention was applied to the exposed bone surface. The muscle was closed in layers using chromic suture, and the skin was closed with stainless steel wound clips. Structure and function of the muscles was intact following surgery, and very little, if any, morbidity was associated with the surgical procedure.
After 7 to 14 days, the animals were terminated and their femurs removed. Evidence of bone growth was determined from gross visualization of the defect using a Wild dissecting scope, and from subsequent histological preparations (decalcification, paraffin embedding, and Trichrome staining).
Results at 12 to 14 days following surgery utilizing pharmaceutical preparation B to accelerate the bone healing process are summarized in Table 2. Controls consisted of bones without treatment.
In a second study, defects were created in bones and pharmaceutical preparation E applied to the exposed bone in the same manner as described in Example 9.

[2] = system: bone models implanted in rats; experiment: Granulation tissue formation in stainless steel chambers (bone healing model) implanted subcutaneously in rats; format: in vivo, rat; conditions: for PROTEIN: relative to BSA
From the text: The subcutaneous implantation of stainless steel chambers in rats provides a reproducible models to monitor the healing of bone. This model in many ways mimics the early events in the formation of granulation tissue found in fractures or other types of injury to bone. Implantation of these chambers triggers a series of responses which reflect the series of phases involved in bone healing--fibrin clot formation, infiltration of white cells, collagen synthesis, and new blood vessel formation.
The assay involves the implantation of two stainless steel chambers (1×2.5 cm cylindrical 312 SS, 20 mesh, with Teflon end caps) on each side of the dorsal midline of rats. After one week to allow for encapsulation of the chambers, one chamber on each rat was injected with 0.2 ml of a 10 mg/ml solution of GHL-Cu and the other with the same volume of saline. Injections are made on days […], 7, 8, 12, 13, 15 and 19. The chambers were removed on day 15 and day 29.
The chambers were lyophilized and the interior contents removed for biochemical analysis. The biochemical parameters examined include the total dry weight, protein content, angiogenesis (alkaline phosphatase activity), and collagen content (hydroxyproline content after acid hydrolysis). Significant increases were found in all the biochemical parameters tested when compounds of the present invention were used as compared to controls.
Protein content was determined by the method of Lowry (Lowry et al., J. Biol. Chem. 193:265-275, 1951) using Bovine Serum Albumin (BSA) as a standard. Angiogenesis was determined by measuring the amount of alkaline phosphatase activity using p-nitrophenyl phosphate as a substrate (Lyles et al., C. Biochem. Pharm. 33:2569-2574, 1984). The collagen content was determined by acid hydrolysis and a colorimetric assay for hydroxyproline (Bergman et al., R. Clin. Chim. Acta 27:347-349, 1970), an amino acid specific for collagen.
The total protein is expressed as mg protein (relative to BSA) per chamber, the angiogenesis as alkaline phosphatase (AP) units per chamber, where one unit=the amount of homogenate which causes an increase in absorbance at 405 nm of 1.0 per min., and the hydroxyproline (HP, Collagen Content) as μg HP per chamber. Comparison with control data is made by determining the ratio, treated/control (T/C) for each parameter.

Substance: L-lysyl-L-histidyl-glycine:copper(II) [LHG-Cu]
- bone healing activity [1]: have shown bone healing activity

Substance: glycyl-L-histidyl-L-lysine:copper(II) [GHL-Cu]
- histology, periosteal layer (FIG. 6) ([1]; X40, Trichrome stain, versus placebo): better developed and continuous
- histology, new bone (FIG. 7) ([1]; X 63, Trichrome stain, versus placebo): increase in density of new bone
- gross appearance of bone defect (FIG. 5) ([1]; day 7, versus placebo gel): influx of bony calcification and granulation tissue
- bone healing activity [1]: have shown bone healing activity
- ANGIOGENESIS (alkaline phosphatase) ([2]; day 15): 6.5 ± 3.2 AP units/chamber
- COLLAGEN (hydroxyproline) ([2]; day 15): 243 ± 215 μg HP/chamber
- DRY WEIGHT ([2]; day 15, chamber injected with 0.2 ml of 10 mg/ml solution): 92 ± 46 mg
- T/C dry weight ([2]; day 15, ratio treated/control): ~ 2 and 2.2
- T/C protein ([2]; day 15, ratio treated/control): ~ 2 and 2.0
- PROTEIN ([2]; day 15): 69 ± 32 mg/chamber
- ANGIOGENESIS (alkaline phosphatase) ([2]; day 29): 20.3 ± 10.0 AP units/chamber
- COLLAGEN (hydroxyproline) ([2]; day 29): 1849 ± 546 μg HP/chamber
- DRY WEIGHT ([2]; day 29): 165 ± 38 mg
- T/C angiogenesis ([2]; day 29, ratio treated/control): 3.2
- T/C collagen ([2]; day 29, ratio treated/control): 1.9
- T/C dry weight ([2]; day 29, ratio treated/control): 1.7
- T/C protein ([2]; day 29, ratio treated/control): 1.4
- PROTEIN ([2]; day 29): 77 ± 19 mg/chamber
